Read-outs that look alike come from different tables or passages of the source. Numbered stars: 1 amine (or outer) side, 2 acyl side, 3 side chain; on linkers, the order of the positions; unused ones are H or OH. Bridge positions count the residues as written; N and C are the ends. Side chains are listed from the residue outwards. Peptide text beside a SMILES is read from it. * marks the point of attachment. C20 diacid = O=C(O)CCCCCCCCCCCCCCCCCCC(=O)*; γGlu = O=C(O)[C@H](CCC(=O)[*:2])N[*:1]
Legend:
[1] = target: T1, human calcitonin receptor (Homo sapiens, UniProt P30988); assay: Assay (VII) binding to the human calcitonin receptor (SPA, 125I-Calcitonin); details: read-out: hCTR bind IC50;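 further: cell membranes coupled to SPA beads, competitive displacement read by scintillation counting, IC50 derived from a one-site competition fit as a measure of receptor affinity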
T1 construct: expressed in transfected cells
T1 sequence (P30988 25-474): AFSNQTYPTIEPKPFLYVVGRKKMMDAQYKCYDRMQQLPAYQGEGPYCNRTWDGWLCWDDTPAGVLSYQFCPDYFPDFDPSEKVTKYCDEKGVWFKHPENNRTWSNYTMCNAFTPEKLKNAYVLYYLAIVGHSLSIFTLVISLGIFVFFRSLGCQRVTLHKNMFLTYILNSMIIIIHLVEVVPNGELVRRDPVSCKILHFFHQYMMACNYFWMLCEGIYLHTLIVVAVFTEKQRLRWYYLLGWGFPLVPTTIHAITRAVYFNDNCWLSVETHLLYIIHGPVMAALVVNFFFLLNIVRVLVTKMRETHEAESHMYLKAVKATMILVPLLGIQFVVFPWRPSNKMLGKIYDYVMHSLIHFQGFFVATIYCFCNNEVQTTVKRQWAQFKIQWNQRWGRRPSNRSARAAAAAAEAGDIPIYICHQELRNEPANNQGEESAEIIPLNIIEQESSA

[2] = target: T2, human amylin receptor (amylin 3(a) receptor: human calcitonin receptor + RAMP-3) (Homo sapiens, UniProt O60896+P30988); assay: Assay (II)a functional assay, human amylin receptor (CRE luciferase, BHK cells); type: cell-based; details: for EC50: read-out: hAmylin-R funct. EC50
T2 construct: expressed in transfected cells
T2 sequence (P30988 25-474): T1 sequence (P30988 25-474)
T2 sequence (O60896 24-148 partner): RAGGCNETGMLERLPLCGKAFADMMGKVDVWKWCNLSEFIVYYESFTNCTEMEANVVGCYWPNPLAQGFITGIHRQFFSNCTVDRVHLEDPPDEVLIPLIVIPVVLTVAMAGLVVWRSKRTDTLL

[3] = target: T3, human amylin receptor (Homo sapiens, UniProt O60896+P30988); assay: Assay (V) binding to the human amylin receptor (SPA, 125I-rat amylin); details: for IC50: human amylin receptor membranes, SPA, read-out: hAmylin-R bind IC50; for Ratio hCT/hAmylin binding: human binding ratio, included for comparison
T3 construct: expressed in transfected cells
T3 sequence (P30988 25-474): T1 sequence (P30988 25-474)
T3 sequence (O60896 24-148 partner): T2 sequence (O60896 24-148 partner)
Procedure, shortened: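 IC50, taken as receptor affinity, came from one-site binding competition analysis of scintillation proximity counts. Amylin 3(a)/CRE-luc cell membranes (35 ng/μL final) were mixed with SPA beads (0.05 mg/well) in 50 mM Hepes pH 7.4 containing CaCl2, MgCl2, 0.1% OA and 0.02% Tween20.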

[4] = target: T1, human calcitonin receptor; assay: Assay (II)a functional assay, human calcitonin receptor (CRE luciferase, BHK cells);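 further: luminescence from a CRE-driven luciferase reporter, read by single photon counting after cells were exposed to test samples for 3 h at 37 °C under 5% CO2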; type: cell-based; details: read-out: hCTR funct. EC50
[5] = Table 6, human functional selectivity (hCTR EC50 / hAmylin-R EC50)
[6] = Table 6a, human functional selectivity (hCTR EC50 / hAmylin-R EC50), at least 5

SMILES | IC50 [1] [nM] | Ratio hCT/hAmylin funct. [2, 5] | Ratio hCT/hAmylin funct. [2, 6] | IC50 [3] [nM] | Ratio hCT/hAmylin funct. ([2]; Table 6i, hCTR funct. EC50 / hAmylin-R funct. EC50) | EC50 ([2]; Table 6i, human amylin receptor functional) [nM] | Ratio hCT/hAmylin funct. ([2]; Table 6j, hCTR funct. EC50 / hAmylin-R funct. EC50) | EC50 [4] [nM] | Ratio hCT/hAmylin binding [3] | EC50 ([2]; functional assay, human amylin receptor) [nM] | EC50 ([2]; Table 6j, human amylin receptor functional) [nM]
CC(C)C[C@H](NC(=O)[C@H](CCCNC(=N)N)NC(=O)[C@H](CCC(N)=O)NC(=O)[C@@H](NC(=O)[C@H](C)NC(=O)[C@@H]1CSSC[C@H](NC(=O)[C@@H](N)CCCCNC(=O)CC[C@H](NC(=O)CC[C@H](NC(=O)CCCCCCCCCCCCCCCCCCC(=O)O)C(=O)O)C(=O)O)C(=O)N[C@@H](CC(N)=O)C(=O)N[C@@H]([C@@H](C)O)C(=O)N[C@@H](C)C(=O)N[C@@H]([C@@H](C)O)C(=O)N1)[C@@H](C)O)C(=O)N[C@@H](C)C(=O)N[C@@H](CC(=O)O)C(=O)N[C@@H](Cc1ccccc1)C(=O)N[C@@H](CC(C)C)C(=O)N[C@@H](CCCNC(=N)N)C(=O)N[C@@H](Cc1c[nH]cn1)C(=O)N[C@@H](CO)C(=O)N[C@@H](CO)C(=O)N[C@@H](CC(N)=O)C(=O)N1CCC[C@H]1C(=O)N[C@@H](Cc1ccccc1)C(=O)NCC(=O)N[C@@H](C)C(=O)N1CCC[C@H]1C(=O)N[C@@H](CC(C)C)C(=O)N[C@@H](CO)C(=O)N[C@@H](CO)C(=O)N[C@H](C(=O)N[C@@H](CC(N)=O)C(=O)N[C@H](C(=O)NCC(=O)N[C@@H](CO)C(=O)N[C@@H](CC(=O)O)C(=O)N[C@H](C(=O)N[C@@H](Cc1ccc(O)cc1)C(N)=O)[C@@H](C)O)C(C)C)[C@@H](C)O [Example 3] (H-K([γGlu-γGlu-C20 diacid])CNTATCATQRLADFLRHSSNPFGAPLSSTNVGSDTY-NH2; disulfide 2-7) | 19.5 | 6.7 | 6.7 | 1.13 | – | – | – | – | – | – | –
CC[C@H](C)[C@H](NC(=O)[C@H](C)NC(=O)CNC(=O)[C@H](Cc1ccccc1)NC(=O)[C@H](CC(N)=O)NC(=O)[C@@H]1CCCN1C(=O)[C@H](CO)NC(=O)[C@H](CO)NC(=O)[C@H](Cc1c[nH]cn1)NC(=O)[C@H](CCCNC(=N)N)NC(=O)[C@H](CC(C)C)NC(=O)[C@H](Cc1ccccc1)NC(=O)[C@H](Cc1c[nH]cn1)NC(=O)[C@H](C)NC(=O)[C@H](CC(C)C)NC(=O)[C@H](CCCNC(=N)N)NC(=O)[C@H](CCC(N)=O)NC(=O)[C@@H](NC(=O)[C@H](C)NC(=O)[C@@H]1CSSC[C@H](NC(=O)[C@@H](N)CCCCNC(=O)COCCOCCNC(=O)CCCCCCCCCCCCCCCCCCC(=O)O)C(=O)N[C@@H](CC(N)=O)C(=O)N[C@@H]([C@@H](C)O)C(=O)N[C@@H](C)C(=O)N[C@@H]([C@@H](C)O)C(=O)N1)[C@@H](C)O)C(=O)N1CCC[C@H]1C(=O)N[C@@H](CO)C(=O)N[C@@H](CO)C(=O)N[C@H](C(=O)N[C@@H](CC(N)=O)C(=O)N[C@H](C(=O)NCC(=O)N[C@@H](CO)C(=O)N[C@@H](CC(N)=O)C(=O)N[C@H](C(=O)N[C@@H](Cc1ccc(O)cc1)C(N)=O)[C@@H](C)O)C(C)C)[C@@H](C)O [Example 90] | 2.57 | – | – | 0.061 | – | – | – | – | – | – | 0.033

Continued, values first:

IC50 [1] [nM] | Ratio hCT/hAmylin funct. [2, 5] | Ratio hCT/hAmylin funct. [2, 6] | IC50 [3] [nM] | Ratio hCT/hAmylin funct. ([2]; Table 6i, hCTR funct. EC50 / hAmylin-R funct. EC50) | EC50 ([2]; Table 6i, human amylin receptor functional) [nM] | Ratio hCT/hAmylin funct. ([2]; Table 6j, hCTR funct. EC50 / hAmylin-R funct. EC50) | EC50 [4] [nM] | Ratio hCT/hAmylin binding [3] | EC50 ([2]; functional assay, human amylin receptor) [nM] | EC50 ([2]; Table 6j, human amylin receptor functional) [nM] | SMILES
1.14 | 7.4 | 7.4 | 0.143 | 7.4 | 0.175 | 7.4 | 1.29 | 8.0 | – | – | CC[C@H](C)[C@H](NC(=O)[C@H](C)NC(=O)CNC(=O)[C@H](Cc1ccccc1)NC(=O)[C@H](CC(N)=O)NC(=O)[C@@H]1CCCN1C(=O)[C@H](CO)NC(=O)[C@H](CO)NC(=O)[C@H](Cc1c[nH]cn1)NC(=O)[C@H](CCCNC(=N)N)NC(=O)[C@H](CC(C)C)NC(=O)[C@H](Cc1ccccc1)NC(=O)[C@H](CCC(=O)O)NC(=O)[C@H](C)NC(=O)[C@H](CC(C)C)NC(=O)[C@H](CCCNC(=N)N)NC(=O)[C@H](CCC(N)=O)NC(=O)[C@@H](NC(=O)[C@H](C)NC(=O)[C@@H]1CSSC[C@H](NC(=O)[C@H](CCCCN)NC(=O)CC[C@H](NC(=O)CCCCCCCCCCCCCCCCCCC(=O)O)C(=O)O)C(=O)N[C@@H](CC(N)=O)C(=O)N[C@@H]([C@@H](C)O)C(=O)N[C@@H](C)C(=O)N[C@@H]([C@@H](C)O)C(=O)N1)[C@@H](C)O)C(=O)N1CCC[C@H]1C(=O)N[C@@H](CO)C(=O)N[C@@H](CO)C(=O)N[C@H](C(=O)N[C@@H](CC(N)=O)C(=O)N[C@H](C(=O)NCC(=O)N[C@@H](CO)C(=O)N[C@@H](CC(N)=O)C(=O)N[C@H](C(=O)N[C@@H](Cc1ccc(O)cc1)C(N)=O)[C@@H](C)O)C(C)C)[C@@H](C)O [Example 9]
0.432 | 1.6 | – | 0.196 | – | – | – | 0.238 | 2.2 | 0.146 | – | CC[C@H](C)[C@H](NC(=O)[C@H](C)NC(=O)CNC(=O)[C@H](Cc1ccccc1)NC(=O)[C@H](CC(N)=O)NC(=O)[C@@H]1CCCN1C(=O)[C@H](CO)NC(=O)[C@H](CO)NC(=O)[C@H](Cc1c[nH]cn1)NC(=O)[C@H](CCCNC(=N)N)NC(=O)[C@H](CC(C)C)NC(=O)[C@H](Cc1ccccc1)NC(=O)[C@H](CCC(=O)O)NC(=O)[C@H](C)NC(=O)[C@H](CC(C)C)NC(=O)[C@H](CCCNC(=N)N)NC(=O)[C@H](CCC(N)=O)NC(=O)[C@@H](NC(=O)[C@H](C)NC(=O)[C@@H]1CSSC[C@H](NC(=O)[C@H](CCCCN)NC(=O)CC[C@H](NC(=O)CC[C@H](NC(=O)CCCCCCCCCCCCCCCCCCC(=O)O)C(=O)O)C(=O)O)C(=O)N[C@@H](CC(N)=O)C(=O)N[C@@H]([C@@H](C)O)C(=O)N[C@@H](C)C(=O)N[C@@H]([C@@H](C)O)C(=O)N1)[C@@H](C)O)C(=O)N1CCC[C@H]1C(=O)N[C@@H](CO)C(=O)N[C@@H](CO)C(=O)N[C@H](C(=O)N[C@@H](CC(N)=O)C(=O)N[C@H](C(=O)NCC(=O)N[C@@H](CO)C(=O)N[C@@H](CC(N)=O)C(=O)N[C@H](C(=O)N1CCC[C@H]1C(N)=O)[C@@H](C)O)C(C)C)[C@@H](C)O [Example 14] ({C20 diacid-γGlu-γGlu}-KCNTATCATQRLAEFLRHSSPNFGAIPSSTNVGSNTP-NH2; disulfide 2-7)
– | 5.0 | 5.0 | – | – | – | – | – | 4.3 | – | – | CC[C@H](C)[C@H](NC(=O)[C@H](C)NC(=O)CNC(=O)[C@H](Cc1ccccc1)NC(=O)[C@H](CC(N)=O)NC(=O)[C@H](CCCCNC(=O)CC[C@H](NC(=O)CC[C@H](NC(=O)CCCCCCCCCCCCCCCCCCC(=O)O)C(=O)O)C(=O)O)NC(=O)[C@H](CO)NC(=O)[C@H](CO)NC(=O)[C@H](Cc1c[nH]cn1)NC(=O)[C@H](CCCNC(=N)N)NC(=O)[C@H](CC(C)C)NC(=O)[C@H](Cc1ccccc1)NC(=O)[C@H](CC(=O)O)NC(=O)[C@H](C)NC(=O)[C@H](CC(C)C)NC(=O)[C@H](CCCNC(=N)N)NC(=O)[C@H](CCC(N)=O)NC(=O)[C@@H](NC(=O)[C@H](C)NC(=O)[C@@H]1CSSC[C@H](NC(=O)[C@@H](N)CCCCN)C(=O)N[C@@H](CC(N)=O)C(=O)N[C@@H]([C@@H](C)O)C(=O)N[C@@H](C)C(=O)N[C@@H]([C@@H](C)O)C(=O)N1)[C@@H](C)O)C(=O)N1CCC[C@H]1C(=O)N[C@@H](CO)C(=O)N[C@@H](CO)C(=O)N[C@H](C(=O)N[C@@H](CC(N)=O)C(=O)N[C@H](C(=O)NCC(=O)N[C@@H](CO)C(=O)N[C@@H](CC(=O)O)C(=O)N[C@H](C(=O)N[C@@H](Cc1ccc(O)cc1)C(N)=O)[C@@H](C)O)C(C)C)[C@@H](C)O [Example 59] (H-KCNTATCATQRLADFLRHSSK([γGlu-γGlu-C20 diacid])NFGAIPSSTNVGSDTY-NH2; disulfide 2-7; N-terminus assumed)
